{"source": "patent US7777073B2", "about": "“Topical delivery system for antiaging and skin whitening agents” (Bioderm Research, priority 2004, dated 2010)", "key": {"[1]": {"target": "T1, Recombinant human MMP-1 enzyme (Homo sapiens, UniProt P03956)", "T1 construct": "purchased R&D Systems", "T1 sequence (P03956 100-469)": "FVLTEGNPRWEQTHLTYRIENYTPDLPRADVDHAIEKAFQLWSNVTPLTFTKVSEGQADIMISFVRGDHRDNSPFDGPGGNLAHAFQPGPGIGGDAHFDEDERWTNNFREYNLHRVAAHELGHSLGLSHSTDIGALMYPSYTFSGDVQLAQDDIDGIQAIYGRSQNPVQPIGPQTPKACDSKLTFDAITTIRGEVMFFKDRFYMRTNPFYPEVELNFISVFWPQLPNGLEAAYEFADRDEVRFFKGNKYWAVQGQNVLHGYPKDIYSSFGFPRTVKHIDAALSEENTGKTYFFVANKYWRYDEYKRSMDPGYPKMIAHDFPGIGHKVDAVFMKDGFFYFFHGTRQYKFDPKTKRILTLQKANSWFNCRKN", "assay": "In vitro inhibition of MMP-1", "assay_type": "biochemical", "details": "enzyme activated with APMA, read-out: 50% Inhibition Concentration MMP-1 (converted)", "source_text": "(§1) In vitro specific inhibition of MMP-2 and MMP-9 activity by [R]-(N-[(2,4-dihydroxyphenyl)ethyl]glycine and [S]-N-[(2,4-dihydroxyphenyl)ethyl]glycine was estimated with assay kits from Biomol Corporation. Recombinant human MMP-1 enzyme was obtained from R&D Systems. The enzyme was first activated with APMA according to the protocol provided by R&D Systems. The experimental conditions for the screening of MMP-1 inhibitors were similar to the settings used for MMP-2 and MMP-9 testing.\n(§2) In vitro inhibition of MMP1, 2 and 9 for several samples (mcg=micro-grams)."}, "[2]": {"target": "T2, MMP-2 (Homo sapiens, UniProt P08253)", "T2 construct": "purchased Biomol Corporation", "T2 sequence (P08253 110-452 limits assumed, species assumed)": "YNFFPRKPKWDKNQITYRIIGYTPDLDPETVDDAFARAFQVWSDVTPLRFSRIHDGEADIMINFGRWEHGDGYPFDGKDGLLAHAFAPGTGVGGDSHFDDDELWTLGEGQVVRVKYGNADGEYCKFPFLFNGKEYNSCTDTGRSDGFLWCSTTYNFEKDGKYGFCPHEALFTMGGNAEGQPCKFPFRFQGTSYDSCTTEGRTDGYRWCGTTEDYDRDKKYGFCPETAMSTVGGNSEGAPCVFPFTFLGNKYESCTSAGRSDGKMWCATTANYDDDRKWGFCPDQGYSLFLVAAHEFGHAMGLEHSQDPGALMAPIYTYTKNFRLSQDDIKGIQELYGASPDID", "assay": "In vitro inhibition of MMP-2 (Biomol assay kit)", "assay_type": "biochemical", "details": "read-out: 50% Inhibition Concentration MMP-2 (converted)", "source_text": "as §1, §2"}, "[3]": {"target": "T3, MMP-9 (Homo sapiens, UniProt P14780)", "T3 construct": "purchased Biomol Corporation", "T3 sequence (P14780 107-444 limits assumed, species assumed)": "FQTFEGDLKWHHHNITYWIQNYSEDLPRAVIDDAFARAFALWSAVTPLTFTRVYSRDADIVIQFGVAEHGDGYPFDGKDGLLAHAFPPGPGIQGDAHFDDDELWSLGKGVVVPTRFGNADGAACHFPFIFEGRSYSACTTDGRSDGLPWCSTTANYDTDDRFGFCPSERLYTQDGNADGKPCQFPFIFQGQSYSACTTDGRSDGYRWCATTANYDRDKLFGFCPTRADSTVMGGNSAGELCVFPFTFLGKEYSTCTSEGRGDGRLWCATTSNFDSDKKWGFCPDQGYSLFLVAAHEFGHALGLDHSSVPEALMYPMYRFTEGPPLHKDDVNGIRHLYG", "assay": "In vitro inhibition of MMP-9 (Biomol assay kit)", "assay_type": "biochemical", "details": "read-out: 50% Inhibition Concentration MMP-9 (converted)", "source_text": "as §1, §2"}, "[4]": {"tested_on": "mushroom tyrosinase", "assay": "Inhibition of tyrosinase, kinetic analysis", "assay_type": "biochemical", "details": "for IC50: 20 C, phosphate buffer 100 mM, pH 6.8, read-out: Tyrosinase Inhibitory Concentration", "method": "Method. Kinetic analysis of 2,4 DHA inhibition.\nAll reactions were performed at 20 C, in phosphate buffer 100 mM, pH 6.8, mushroom tyrosinase."}, "[5]": {"tested_on": "Matrix metalloproteases", "assay": "In vitro inhibition of Matrix metalloproteases, overall assessment", "assay_type": "biochemical", "source_text": "as §1"}, "[6]": {"tested_on": "skin", "assay": "Differences in antiaging and skin whitening affect of [S] and [R] isomers"}}, "note": "Entries after “also recorded” stand apart in the source; their conditions may differ. Like-named read-outs stand apart in the source and are kept apart here."}
{"smiles": "C[C@@H](NCC(=O)O)c1ccc(O)cc1O", "values": [{"measurement": "IC50", "setting": "[1]", "value": 94.7, "unit": "µM"}, {"measurement": "IC50", "setting": "[2]", "value": 71, "unit": "µM"}, {"measurement": "IC50", "setting": "[3]", "value": 94.7, "unit": "µM"}, {"measurement": "Tyrosinase inhibition (in words)", "setting": "[4]", "value": "excellent inhibitor"}, {"measurement": "IC50", "setting": "[4]", "value": 5000, "unit": "µM"}, {"measurement": "Tyrosinase inhibition (in words)", "setting": "[4]; listed as [R]-(N-[(2,4-dihydroxyphenyl)ethyl]glycine)", "value": "anti-tyrosinase activity"}, {"measurement": "MMP inhibition (in words)", "setting": "[5]; MMP1, 2 and 9", "value": "very good and general inhibition"}, {"measurement": "MMP inhibition (in words)", "setting": "[5]; MMP1, 2 and 9, listed as [R]-(N-[(2,4-dihydroxyphenyl)ethyl]glycine)", "value": "MMP inhibition"}, {"measurement": "Skin whitening benefits, [R] versus [S] isomer", "setting": "[6]", "value": "better skin whitening benefits"}]}
{"smiles": "OC[C@H]1O[C@@H](Oc2ccc(O)cc2)[C@H](O)[C@@H](O)[C@@H]1O", "note": "[Arbutin, reference compound]", "values": [{"measurement": "IC50", "setting": "[4]", "value": 25000, "unit": "µM"}]}
{"smiles": "C[C@H](NCC(=O)O)c1ccc(O)cc1O", "note": "[[S]-N-[(2,4-dihydroxyphenyl)ethyl]glycine]", "values": [{"measurement": "IC50", "setting": "[1]", "value": 166, "unit": "µM"}, {"measurement": "IC50", "setting": "[2]", "value": 189, "unit": "µM"}, {"measurement": "IC50", "setting": "[3]", "value": 284, "unit": "µM"}, {"measurement": "Tyrosinase inhibition (in words)", "setting": "[4]", "value": "anti-tyrosinase activity; also recorded: excellent inhibitor"}, {"measurement": "IC50", "setting": "[4]", "value": 10000, "unit": "µM"}, {"measurement": "MMP inhibition (in words)", "setting": "[5]; MMP1, 2 and 9", "value": "MMP inhibition; also recorded: just a bit weaker, but still quite acceptable"}, {"measurement": "Antiwrinkle properties, [S] versus [R] isomer", "setting": "[6]", "value": "better antiwrinkle properties"}]}
